Here are results for 10 compounds from article PMC5685509 (Journal of agricultural and food chemistry, 2017).

As a reminder, the IC50 is the midpoint of a concentration-inhibition curve.

Assay [1] concerns Hepa1c1c7 cells. Kind of assay: cytotoxicity in Hepa1c1c7 cells. It counts as cell-based, murine. The conditions noted are these: Mus musculus, Hepa-1c1c7, read-out: quinone reductase (QR) induction IC50.
Assay [2] deals with quinone reductase. Kind of assay: in vitro quinone reductase. Format: cell-based, murine. The settings on record: for CI, chemoprevention index (= IC50/CD): Hepa1c1c7 cells.
Assay [3] can be described thus: in vitro hydroxyl radical-scavenging activity bioassay. Format: biochemical.

SMILES strings stand for the structures. Structures can show the parent of a compound that is named as a salt.

For `O=c1c(O[C@@H]2O[C@H](CO)[C@H](O)[C@H](O)[C@H]2O)c(-c2ccc(O)c(O)c2)oc2cc(O)cc(O)c12` [Compound 7, hyperoside], in assay [1], the 50% inhibitory concentration (IC50) was above 100 µM. Moreover, in assay [2], the “quinone reductase-inducing activity (in words)” value is reported as “exhibited quinone reductase-inducing activity” and the “CI, chemoprevention index (= IC50/CD)” value is above 5.2.
Take `O=c1c(O[C@@H]2O[C@@H](CO)[C@H](O)[C@H]2O)c(-c2ccc(O)c(O)c2)oc2cc(O)cc(O)c12` [Compound 8, quercetin 3-O-α-L-arabinofuranoside]: the IC50 in assay [1] was above 100 µM.
In the case of `O=c1c(O[C@@H]2OC[C@@H](O)[C@H](O)[C@H]2O)c(-c2ccc(O)c(O)c2)oc2cc(O)cc(O)c12` [Compound 9, quercetin 3-O-β-D-xylopyranoside], the IC50 in assay [1] is above 100 µM.
Regarding `O=C(O)c1cc(O)c(O)c(O)c1` [Compound 10, gallic acid], the IC50 in assay [1] came out at 55.3 ± 7.8 µM.
`COC(=O)c1cc(O)c(O)c(O)c1` [Compound 11, gallic acid methyl ester]: the IC50 in assay [1] worked out at 82.4 ± 11.9 µM. For the same compound, in assay [2], the “quinone reductase-inducing activity (in words)” value is “exhibited quinone reductase-inducing activity” and the “CI, chemoprevention index (= IC50/CD)” value is on record as 5.8 ± 0.82.
As to `O=C(O)c1ccc(O)c(O)c1` [Compound 12, protocatechuic acid], the IC50 in assay [1] is above 100 µM. Moreover, in assay [2], the “quinone reductase-inducing activity (in words)” value is “exhibited quinone reductase-inducing activity” and the “CI, chemoprevention index (= IC50/CD)” value is above 24.4.
`O=Cc1ccc(CO)o1` [Compound 14, hydroxymethylfurfural]: the “quinone reductase-inducing activity (in words)” value in assay [2] is reported as “exhibited quinone reductase-inducing activity”.
Take `CC(=O)OCc1ccc(C=O)o1` [Compound 15, acetyloxymethylfurfural]: the “hydroxyl radical-scavenging activity (in words)” value in assay [3] is reported as “showed activity in neither of these two assays”. For the same compound, the “quinone reductase-inducing activity (in words)” value in assay [2] was “showed activity in neither of these two assays”.
Take `COC(=O)CC(O)(CC(=O)OC)C(=O)O` [Compound 16, 1,5-dimethyl citrate]: in assay [3], the “hydroxyl radical-scavenging activity (in words)” value was “showed activity in neither of these two assays”. Moreover, the “quinone reductase-inducing activity (in words)” value in assay [2] is recorded as “showed activity in neither of these two assays”.
Consider `C[S@@+]([O-])CCCCN=C=S` [L-sulforaphane, reference compound], for which the IC50 in assay [1] was 16.7 ± 1.9 µM. In addition, the “CI, chemoprevention index (= IC50/CD)” value in assay [2] came to 21.7 ± 2.8.
